Data published in ChEMBL document CHEMBL2401704, “Inhibition of rhodesain as a novel therapeutic modality for human African trypanosomiasis” (J Med Chem, 2013).
Residues, ends and D or L forms follow the SMILES beside them. *: point of attachment. Cbz = O=C(OCc1ccccc1)*; CHN2 = [N-]=[N+]=C*; CH2Cl = ClC*

Assays:
Trypanosoma brucei [1] = experiment: Inhibition of Trypanosoma brucei rhodesain assessed as second order rate constant
[2] = test system: Trypanosoma brucei brucei; experiment: Antitrypanosomal activity against blood stream form of Trypanosoma brucei brucei; type: functional, organism-based
[3] = test system: Trypanosoma brucei brucei; experiment: Antitrypanosomal activity against procyclic form of Trypanosoma brucei brucei; type: functional; conditions: read-out: ED50 (the source's name)
[4] = Inhibition of Trypanosoma brucei recombinant rhodesain
[5] = Inhibition of Trypanosoma brucei rhodesain
Trypanosoma brucei [6] = experiment: Antitrypanosomal activity against Trypanosoma brucei; type: functional, organism-based
[7] = test system: Trypanosoma brucei rhodesiense; experiment: Antitrypanosomal activity against Trypanosoma brucei rhodesiense; type: functional, organism-based
[8] = Inhibition of Plasmodium falciparum Falcipain 2
L6 = experiment: Cytotoxicity against rat L6 cells; type: cell-based
Plasmodium falciparum = experiment: Antiprotozoal activity against Plasmodium falciparum; type: functional, organism-based
Cruzipain = Cruzipain (Trypanosoma cruzi, UniProt P25779); experiment: Inhibition of Trypanosoma cruzi cruzain
Rhodesain = Rhodesain (Trypanosoma brucei rhodesiense, UniProt Q95PM0); experiment: Inhibition of Trypanosoma brucei rhodesiense rhodesain
[9] = test system: Trypanosoma brucei brucei; experiment: Antitrypanosomal activity against Trypanosoma brucei brucei; type: functional, organism-based

Chain of Rhodesain (Q95PM0 whole entry): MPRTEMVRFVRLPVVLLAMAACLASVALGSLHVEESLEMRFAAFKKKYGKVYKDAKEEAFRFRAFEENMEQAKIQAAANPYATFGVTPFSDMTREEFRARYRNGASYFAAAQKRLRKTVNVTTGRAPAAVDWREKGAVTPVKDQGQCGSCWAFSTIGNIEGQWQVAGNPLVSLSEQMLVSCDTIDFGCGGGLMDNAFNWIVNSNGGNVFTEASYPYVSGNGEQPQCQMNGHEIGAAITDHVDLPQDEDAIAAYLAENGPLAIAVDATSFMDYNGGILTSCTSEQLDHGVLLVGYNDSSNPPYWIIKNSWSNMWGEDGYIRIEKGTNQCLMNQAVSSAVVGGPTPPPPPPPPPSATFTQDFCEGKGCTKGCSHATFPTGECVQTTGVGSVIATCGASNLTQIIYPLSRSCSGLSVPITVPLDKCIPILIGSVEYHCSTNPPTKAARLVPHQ
Chain of Cruzipain (P25779 whole entry): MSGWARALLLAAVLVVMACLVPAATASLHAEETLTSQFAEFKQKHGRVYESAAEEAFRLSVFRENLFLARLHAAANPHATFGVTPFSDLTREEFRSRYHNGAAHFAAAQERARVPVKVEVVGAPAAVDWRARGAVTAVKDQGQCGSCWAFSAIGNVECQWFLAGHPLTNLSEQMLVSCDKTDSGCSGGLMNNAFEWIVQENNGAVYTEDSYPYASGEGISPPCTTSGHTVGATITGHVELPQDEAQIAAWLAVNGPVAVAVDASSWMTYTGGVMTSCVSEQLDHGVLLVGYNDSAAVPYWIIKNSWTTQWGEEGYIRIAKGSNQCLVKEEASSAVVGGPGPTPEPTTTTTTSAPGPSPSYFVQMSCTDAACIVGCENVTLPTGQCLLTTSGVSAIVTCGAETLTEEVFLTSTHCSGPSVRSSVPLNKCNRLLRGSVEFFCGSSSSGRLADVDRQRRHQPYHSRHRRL

O=C(N[C@@H](Cc1ccccc1)C(=O)N[C@H](/C=C/S(=O)(=O)c1ccccc1)CCc1ccccc1)OCc1ccccc1
K (Trypanosoma brucei [1]): 1.61 ×10⁷ /M/min

CCCCCN(C#N)N(C)C(=O)[C@H](Cc1ccccc1)NC(=O)OCc1ccccc1
EC50 ([2]; read-out: ED50 (the source's name)): 1400 nM
EC50 [3]: 700 nM
IC50 [4]: 0.06 nM

CN(C#N)N(C)C(=O)[C@H](Cc1ccccc1)NC(=O)c1ccc2c(c1)OCCO2
IC50 [4]: 0.14 nM

CN(C#N)N(C)C(=O)[C@H](Cc1ccccc1)NC(=O)OC(C)(C)C
IC50 [4]: 0.06 nM

CCCCCN(C#N)N(C)C(=O)[C@H](CC(C)C)NC(=O)c1ccc2c(c1)OCCO2
IC50 [4]: 0.33 nM

CN(C#N)N(C)C(=O)[C@H](Cc1ccccc1)NC(=O)OCc1ccccc1
IC50 [4]: 0.4 nM

C/C(=N\N=C(\N)S)c1cccc(Nc2ccccc2)c1
IC50 [5]: 800 nM
IC50 (Trypanosoma brucei [6]): 8000 nM

C/C(=N\NC(N)=S)c1cccc(/C(C)=N/NC(N)=S)c1
IC50 [5]: 330 nM
IC50 (Trypanosoma brucei [6]): > 20000 nM

N/C(S)=N/N=C(\C=C\c1ccccc1)c1ccc(Cl)c(Cl)c1
IC50 [7]: 72 nM

NC(=S)/N=N/c1c(O)[nH]c2ccccc12
IC50 [5]: 3500 nM

CN(C(=O)[C@H](Cc1ccccc1)NC(=O)OCc1ccccc1)N(C#N)CCc1ccccc1
IC50 [4]: 0.81 nM

C/C(=N\N=C(\N)S)c1ccc(Oc2ccccc2)cc1
IC50 [5]: 8000 nM
IC50 (Trypanosoma brucei [6]): 3000 nM

N#Cc1nc(N2CCOCC2)nc(N(Cc2cccc(C(F)(F)F)c2)C2C3CC4CC(C3)CC2C4)n1 (stereo not drawn)
IC50 [7]: 27500 nM
Ki [8]: 12900 nM
IC50 (L6): 23200 nM
IC50 (Plasmodium falciparum): 1100 nM

CSc1cccc(NC(=O)Nc2sc3ccccc3c2Cl)c1
IC50 [5]: < 10000 nM
IC50 (Cruzipain): < 10000 nM

C[C@H](NC(=O)[C@H](Cc1ccccc1)NC(=O)OCc1ccccc1)C(=O)CF
IC50 [2]: 31000 nM

CS/C(S)=N/N=C(\C)c1ccccn1
IC50 [5]: > 20000 nM
IC50 (Trypanosoma brucei [6]): 300 nM

C/C(=N\N=C(\N)S)c1cccc(Br)c1
IC50 [5]: 50 nM
IC50 (Trypanosoma brucei [6]): > 20000 nM

N#Cc1nc(N2CCOCC2)nc(N(c2ccccc2F)C2CCCCC2)n1
IC50 [7]: 15000 nM
Ki [8]: 25 nM
IC50 (L6): 11400 nM
Ki (Rhodesain): 11 nM
IC50 (Plasmodium falciparum): > 5000 nM

CCCC1CCC(N(Cc2ccc3c(c2)OCO3)c2nc(C#N)nc(N3CCOCC3)n2)CC1 (stereo not drawn)
IC50 [7]: 31200 nM
Ki [8]: 1030 nM
IC50 (L6): 5900 nM
Ki (Rhodesain): 2 nM
IC50 (Plasmodium falciparum): 2400 nM

O=C1C(=O)N(C(=O)OCc2ccccc2)c2ccccc21
IC50 [5]: 30000 nM

O=C1C(=O)N(S(=O)(=O)c2ccccc2)c2ccccc21
IC50 [5]: 15000 nM

C/C(=N\N=C(\N)S)c1cccc(-c2ccccc2)c1
IC50 [5]: 1100 nM
IC50 (Trypanosoma brucei [6]): 12000 nM

COCCNc1nc(C#N)nc(N(Cc2cccc(C(F)(F)F)c2)C2C3CC4CC(C3)CC2C4)n1 (stereo not drawn)
IC50 [7]: 19600 nM
Ki [8]: 9800 nM
IC50 (L6): 8100 nM
IC50 (Plasmodium falciparum): 1800 nM

N=C(NC(=O)OCc1ccccc1)NC(=O)c1ccc(C(=O)NCc2ccccc2)[nH]1
IC50 [9]: 9170 nM
Ki [8]: 7810 nM
Ki [5]: 50 nM

O=C(N[C@@H](Cc1ccccc1)C(=O)N[C@H](/C=C/S(=O)(=O)CCc1ccccc1)CCc1ccccc1)OCc1ccccc1
K (Trypanosoma brucei [1]): 1.09 ×10⁷ /M/min

NC(=S)/N=N/c1c(O)[nH]c2ccc(I)cc12
IC50 [5]: 1000 nM

O=C(N[C@@H](Cc1ccccc1)C(=O)N[C@H](/C=C/S(=O)(=O)Cc1ccccc1)CCc1ccccc1)OCc1ccccc1
K (Trypanosoma brucei [1]): 5.35 ×10⁷ /M/min

O=C(NC(=S)Nc1ccc(O)cc1)c1sc2ccccc2c1Cl
IC50 [5]: < 10000 nM
IC50 (Cruzipain): < 10000 nM

CCCCCN(C#N)N(C)C(=O)[C@@H](NC(=O)c1ccc2c(c1)OCCO2)C(C)C
IC50 [4]: 54.6 nM

CCCc1c(NC(=O)Nc2ccc(OC(F)(F)F)cc2)cnn1-c1ccc(Cl)cc1
IC50 [5]: < 10000 nM
IC50 (Cruzipain): < 10000 nM

N#Cc1nc(N2CCOCC2)nc(N(Cc2ccc3c(c2)OCO3)C2CCCCC2)n1
IC50 [7]: 30100 nM
Ki [8]: 20 nM
IC50 (L6): 11100 nM
Ki (Rhodesain): 8 nM
IC50 (Plasmodium falciparum): 2900 nM

CCCC/C(=N\NC(N)=S)c1ccc(Cl)c(Cl)c1
IC50 [7]: 130 nM

CC(C)[C@H](NC(=O)c1ccc2c(c1)OCCO2)C(=O)N(C)N(C#N)CCc1ccccc1
IC50 [4]: 35.1 nM

C/C(=N\N=C(\N)S)c1ccc(-c2ccccc2)cc1
IC50 [5]: 90 nM
IC50 (Trypanosoma brucei [6]): 10000 nM

CC(C)C[C@H](NC(=O)c1ccc2c(c1)OCCO2)C(=O)N(C)N(C#N)CCc1ccccc1
IC50 [4]: 0.71 nM

CC(C)C[C@H](NC(=O)c1ccc2c(c1)OCCO2)C(=O)N(C)N(C)C#N
IC50 [4]: 0.06 nM

CCN(c1nc(C#N)nc(N2CCOCC2)n1)C1CCCCC1
IC50 [7]: 44100 nM
Ki [8]: 80 nM
IC50 (L6): 45500 nM
Ki (Rhodesain): 100 nM
IC50 (Plasmodium falciparum): > 5000 nM

N#Cc1nc(N2CCOCC2)nc(N(c2ccccc2)c2ccccc2)n1
IC50 [7]: 18900 nM
Ki [8]: 42 nM
IC50 (L6): 22000 nM
Ki (Rhodesain): 36 nM
IC50 (Plasmodium falciparum): > 5000 nM

CC(C)[C@H](NC(=O)c1ccc2c(c1)OCCO2)C(=O)N(C)N(C)C#N
IC50 [4]: 5.4 nM

CC(C)(C)OC(=O)Nc1cccc(CNC(=O)c2ccc(C(=O)NC(=N)NC(=O)OCc3ccccc3)o2)c1
IC50 [9]: 3210 nM
Ki [8]: 3930 nM
Ki [5]: 5290 nM

CC(C)C[C@H](NC(=O)c1ccc2c(c1)OCCO2)C(=O)N(C)N(C#N)CCCc1ccccc1
IC50 [4]: 0.14 nM

C/C(=N\N=C(/S)N1CCN(C)CC1)c1cccc(Br)c1
IC50 [5]: 4000 nM
IC50 (Trypanosoma brucei [6]): 2000 nM

C/C(=N\N=C(/S)N1CCCCC1)c1cccc(Br)c1
IC50 [5]: 4000 nM
IC50 (Trypanosoma brucei [6]): 3000 nM

[N-]=[N+]=CC(=O)[C@H](Cc1ccccc1)NC(=O)[C@H](Cc1ccccc1)NC(=O)OCc1ccccc1 (Cbz-Phe-Phe-CHN2)
IC50 [2]: 4800 nM

CN(C(=O)[C@H](Cc1ccccc1)NC(=O)c1ccc2c(c1)OCCO2)N(C#N)Cc1ccccc1
IC50 [4]: 0.51 nM

N=C(NC(=O)OCc1ccccc1)NC(=O)c1ccc(C(=O)NCc2cccc(NC(=O)OCc3ccccc3)c2)o1
IC50 [9]: 8310 nM
Ki [8]: 1150 nM
Ki [5]: 50 nM

C[C@H](NC(=O)[C@H](Cc1ccccc1)NC(=O)OCc1ccccc1)C(=O)CCl
IC50 [2]: 21000 nM

CC(C)C[C@H](NC(=O)N1CCOCC1)C(=O)N[C@H](/C=C/S(=O)(=O)c1ccccc1)CCc1ccccc1
K (Trypanosoma brucei [1]): 15.8 ×10⁶ /M/min

CCCCCN(C#N)N(C)C(=O)[C@H](Cc1ccccc1)NC(=O)c1ccc2c(c1)OCCO2
IC50 [4]: 1.34 nM

CC(C)[C@H](NC(=O)c1ccc2c(c1)OCCO2)C(=O)N(C)N(C#N)Cc1ccccc1
IC50 [4]: 15.8 nM

N=C(NC(=O)OCc1ccccc1)NC(=O)c1ccc(C(=O)NCc2ccc(NC(=O)OCc3ccccc3)cc2)[nH]1
IC50 [9]: > 100000 nM
Ki [8]: 870 nM
Ki [5]: 28 nM

O=C(N[C@@H](Cc1ccccc1)C(=O)N[C@@H](Cc1ccccc1)C(=O)CCl)OCc1ccccc1 (Cbz-Phe-Phe-CH2Cl)
IC50 [2]: 3600 nM

CN(C(=O)[C@H](Cc1ccccc1)NC(=O)c1ccc2c(c1)OCCO2)N(C#N)CCc1ccccc1
IC50 [4]: 1.86 nM

O=C(N[C@@H](Cc1ccccc1)C(=O)N[C@H](/C=C/S(=O)(=O)Oc1ccccc1)CCc1ccccc1)OCc1ccccc1
K (Trypanosoma brucei [1]): 3.48 ×10⁸ /M/min

O=C(N[C@@H](Cc1ccccc1)C(=O)N[C@H](/C=C/S(=O)(=O)Nc1ccccc1)CCc1ccccc1)OCc1ccccc1
K (Trypanosoma brucei [1]): 2.24 ×10⁶ /M/min

N=C(NC(=O)OCc1ccccc1)NC(=O)c1ccc(C(=O)NCc2ccccc2)o1
Ki [8]: 2690 nM
Ki [5]: 2080 nM

CC(C)(C)OC(=O)NCc1cccc(NC(=O)c2ccc(C(=O)NC(=N)NC(=O)OCc3ccccc3)[nH]2)c1
IC50 [9]: 220 nM
Ki [8]: 620 nM
Ki [5]: 110 nM

CC(C)C[C@H](NC(=O)c1ccc2c(c1)OCCO2)C(=O)N(C)N(C#N)Cc1ccccc1
IC50 [4]: 0.33 nM

CCN(CC)/C(S)=N/N=C(\C)c1cccc(Br)c1
IC50 [5]: 1800 nM
IC50 (Trypanosoma brucei [6]): 3000 nM

N=C(NC(=O)OCc1ccccc1)NC(=O)c1ccc(C(=O)NCc2cccc(NC(=O)OCc3ccccc3)c2)[nH]1
IC50 [9]: 2320 nM
Ki [8]: 1620 nM
Ki [5]: 100 nM

C/C(=N\N=C(\N)S)c1ccc(Nc2ccccc2)cc1
IC50 [5]: 18000 nM
IC50 (Trypanosoma brucei [6]): 4500 nM

C/C(=N\N=C(\N)S)c1cccc(Oc2ccccc2)c1
IC50 [5]: 550 nM
IC50 (Trypanosoma brucei [6]): 6000 nM

O=C(NC(=S)Nc1ncccc1OCc1ccccc1)c1cccn1S(=O)(=O)c1ccccc1
IC50 [5]: 3500 nM
IC50 (Cruzipain): 3000 nM

C[C@H](NC(=O)[C@H](Cc1ccccc1)NC(=O)OCc1ccccc1)C(=O)C=[N+]=[N-]
IC50 [2]: 6100 nM

CN(C(=O)[C@H](Cc1ccccc1)NC(=O)c1ccc2c(c1)OCCO2)N(C#N)CCCc1ccccc1
IC50 [4]: 0.24 nM

CC(C)[C@H](NC(=O)c1ccc2c(c1)OCCO2)C(=O)N(C)N(C#N)CCCc1ccccc1
IC50 [4]: 54 nM
